Laboratory results reported in the OligoGym collection.
Several values for one entry are separate records, joined by “and”; a condition that tells them apart may be missing. Identical values can stand only once. After the bases stand the sugars from the 5' end (letter, count) and the backbone: PS all phosphorothioate, else s phosphorothioate and o phosphodiester by linkage. Methylation of C is not given here. e = 2'-O-(2-methoxyethyl) (MOE); k = constrained ethyl (cEt); d = 2'-deoxy (DNA); m = 2'-O-methyl

Molecular target: HSD17B13
Conditions: ASO, HepaRG

Row | Sequence | target mRNA inhibition (1 µM) | other results
1 | ACCTGATTTAGAGAGC (sugars k3 d10 k3, PS) | 65% | 
2 | ACCTTATTAATATCCC (sugars k3 d10 k3, PS) | 71% and 50% | target mRNA inhibition (0.02 µM): 0%; target mRNA inhibition (0.078 µM): 0%; target mRNA inhibition (0.313 µM): 0%; target mRNA inhibition (1.25 µM): 72%; target mRNA inhibition (5 µM): 90%
3 | ACCTTCCCTGTGTAAA (sugars k3 d10 k3, PS) | 60% | 
4 | ACGCATGCGCAGTGAC (sugars k3 d10 k3, PS) | 52% | 
5 | ACTAATATTGAGGCAC (sugars k3 d9 k3 e1, PS) | 62% | 
6 | ACTAATCTCAGTACTC (sugars k3 d10 k3, PS) | 45% | 
7 | ACTAATGAATCATGAT (sugars k3 d10 k3, PS) | 39% | 
8 | ACTACAAGAGGTTATT (sugars k3 d1 m1 d8 k3, PS) | 29% | 
9 | ACTACAAGAGGTTATT (sugars kkdddddddddkekek, PS) | 42% | 
10 | ACTATGTAATAGGCAG (sugars k3 d10 k3, PS) | 85% | target mRNA inhibition (0.02 µM): 33%; target mRNA inhibition (0.078 µM): 31%; target mRNA inhibition (0.313 µM): 71%; target mRNA inhibition (1.25 µM): 88%; target mRNA inhibition (5 µM): 94%
11 | ACTCGGGAAGTTTAGA (sugars k3 d10 k3, PS) | 26% | 
12 | ACTGAAATTGATACAC (sugars k3 d10 k3, PS) | 49% | 
13 | ACTGAAGGCTGTGTAC (sugars k3 d10 k3, PS) | 14% | 
14 | ACTGATTTAGTTGGTA (sugars k3 d10 k3, PS) | 55% | 
15 | ACTGTCCCAGCATTAT (sugars k3 d10 k3, PS) | 40% | 
16 | ACTGTGACGATGTGGC (sugars k3 d10 k3, PS) | 40% | 
17 | ACTTCATAGTGGACTT (sugars k3 d10 k3, PS) | 61% | 
18 | ACTTGAATTCTGTGTC (sugars k3 d10 k3, PS) | 52% | 
19 | AGAAGATCGGCTGGAT (sugars k3 d10 k3, PS) | 29% | 
20 | AGAATAGAGTTGCACC (sugars kkdddddddddkekek, PS) | 59% | 
21 | AGAATAGTCTTCAGCA (sugars k3 d10 k3, PS) | 80% | 
22 | AGAAUAGAGTTGCACC (sugars k3 d1 m1 d8 k3, PS) | 49% | 
23 | AGACAGGGTGGTAACG (sugars k3 d10 k3, PS) | 51% | 
24 | AGACATGAGGTTTTGA (sugars k3 d10 k3, PS) | 59% | 

Row | Sequence | target mRNA inhibition (1 µM) | other results
25 | AGACTTTGAGACTCTT (sugars k3 d10 k3, PS) | 57% | 
26 | AGAGACATGAGGTTTT (sugars k3 d10 k3, PS) | 77% | target mRNA inhibition (0.02 µM): 18%; target mRNA inhibition (0.078 µM): 16%; target mRNA inhibition (0.313 µM): 47%; target mRNA inhibition (1.25 µM): 69%; target mRNA inhibition (5 µM): 85%
27 | AGAGAGTAATCAGTTT (sugars k3 d1 m1 d8 k3, PS) | 25% | 
28 | AGAGGCTAGGGAAATC (sugars k3 d10 k3, PS) | 63% | 
29 | AGAGTTGCACCGTTTT (sugars k3 d9 k3 e1, PS) | 78% | target mRNA inhibition (0.02 µM): 0%; target mRNA inhibition (0.078 µM): 0%; target mRNA inhibition (0.313 µM): 26%; target mRNA inhibition (1.25 µM): 55%; target mRNA inhibition (5 µM): 45%
30 | AGAGUCGGTCACCTTT (sugars k3 d1 m1 d8 k3, PS) | 55% | 
31 | AGATAAAGCTGCCTGC (sugars k3 d1 m1 d8 k3, PS) | 35% | 
32 | AGATAAAGCTGCCTGC (sugars k3 d9 k3 e1, PS) | 44% | 
33 | AGATAAAGCTGCCTGC (sugars kkdddddddddkekek, PS) | 30% | 
34 | AGATATTGATATACGA (sugars k3 d10 k3, PS) | 20% | 
35 | AGATCGGCTGGATATA (sugars k3 d10 k3, PS) | 27% | 
36 | AGCAAGCCAACAGAGA (sugars k3 d10 k3, PS) | 40% | 
37 | AGCAGAATTGTGAACG (sugars k3 d1 m1 d8 k3, PS) | 51% | 
38 | AGCAGAATTGTGAACG (sugars k3 d9 k3 e1, PS) | 56% | 
39 | AGCAGAATTGTGAACG (sugars k3 d10 k3, PS) | 67% | 
40 | AGCATATTCATTTGGC (sugars k3 d10 k3, PS) | 61% | 
41 | AGCATCAAGACATTCT (sugars k3 d10 k3, PS) | 79% | target mRNA inhibition (0.02 µM): 5%; target mRNA inhibition (0.078 µM): 15%; target mRNA inhibition (0.313 µM): 62%; target mRNA inhibition (1.25 µM): 78%; target mRNA inhibition (5 µM): 86%
42 | AGCCAAACTGCTACTG (sugars k3 d10 k3, PS) | 78% | 
43 | AGCCAGTACAGTTCCT (sugars k3 d1 m1 d8 k3, PS) | 65% | 
44 | AGCCTAAAATTGTCTA (sugars k3 d10 k3, PS) | 53% | 
45 | AGCGATAGATCTCTTC (sugars k3 d10 k3, PS) | 31% | 
46 | AGCGGCAAATTTGCTG (sugars k3 d10 k3, PS) | 5% | 
47 | AGCTAATGTATGAGGT (sugars k3 d10 k3, PS) | 56% | 
48 | AGCTAGACAATTGCAA (sugars k3 d10 k3, PS) | 30% | 

Row | Sequence | target mRNA inhibition (1 µM) | other results
49 | AGGAGTAGTGGAGCCA (sugars k3 d10 k3, PS) | 16% | 
50 | AGGATAGTCCATGCAA (sugars kkdddddddddkekek, PS) | 46% | 
51 | AGGCAAGGATACCTGA (sugars k3 d10 k3, PS) | 42% | 
52 | AGGCCATAATCTTGTG (sugars k3 d10 k3, PS) | 33% | 
53 | AGGCTAAAATGGTCAT (sugars k3 d10 k3, PS) | 36% | 
54 | AGGCTAGGGAAATCTT (sugars k3 d9 k3 e1, PS) | 55% | 
55 | AGGCTAGGGAAATCTT (sugars k3 d10 k3, PS) | 62% | 
56 | AGGCTTATGAAGTTAG (sugars k3 d10 k3, PS) | 57% | 
57 | AGGCUAGGGAAATCTT (sugars k3 d1 m1 d8 k3, PS) | 41% | 
58 | AGGGAATGTTATGTAC (sugars k3 d10 k3, PS) | 49% | 
59 | AGGGAGACCATGCTGC (sugars k3 d10 k3, PS) | 79% | target mRNA inhibition (0.02 µM): 10%; target mRNA inhibition (0.078 µM): 28%; target mRNA inhibition (0.313 µM): 52%; target mRNA inhibition (1.25 µM): 59%; target mRNA inhibition (5 µM): 79%
60 | AGGGTCCACTTTTGGT (sugars k3 d10 k3, PS) | 11% | 
61 | AGGTAGCTTTTGTCCA (sugars k3 d9 k3 e1, PS) | 58% | 
62 | AGGTAGCTTTTGTCCA (sugars k3 d10 k3, PS) | 56% | 
63 | AGGTAGCTTTTGTCCA (sugars kkdddddddddkekek, PS) | 26% | 
64 | AGTAATTCTAAACTAG (sugars k3 d10 k3, PS) | 31% | 
65 | AGTACCAAGACACTAA (sugars k3 d10 k3, PS) | 66% | 
66 | AGTAGTGTAAGCTGAG (sugars k3 d9 k3 e1, PS) | 71% | 
67 | AGTCGGTCACCTTTCA (sugars k3 d1 m1 d8 k3, PS) | 61% | 
68 | AGTCGGTCACCTTTCA (sugars kkdddddddddkekek, PS) | 55% | 
69 | AGTCTGCCTGCCTATT (sugars k3 d10 k3, PS) | 47% | 
70 | AGTCTTAAACCTTCCC (sugars kkdddddddddkekek, PS) | 43% | 
71 | AGTGCATCTTAAGATA (sugars k3 d1 m1 d8 k3, PS) | 17% | 
72 | AGTGCCAAACCAATGT (sugars k3 d9 k3 e1, PS) | 60% | 

Row | Sequence | target mRNA inhibition (1 µM) | other results
73 | AGTGCCAAACCAATGT (sugars kkdddddddddkekek, PS) | 71% | target mRNA inhibition (0.02 µM): 13%; target mRNA inhibition (0.078 µM): 2%; target mRNA inhibition (0.313 µM): 40%; target mRNA inhibition (1.25 µM): 61%; target mRNA inhibition (5 µM): 83%
74 | AGTGCTAAGTAGTAAT (sugars k3 d10 k3, PS) | 71% | 
75 | AGTTAGAATAGTCTTC (sugars k3 d10 k3, PS) | 67% | 
76 | AGTTAGCAGCTAAAAT (sugars k3 d10 k3, PS) | 33% | 
77 | AGTTAGTATAGTTATC (sugars k3 d9 k3 e1, PS) | 47% | 
78 | AGTTAGTATAGTTATC (sugars k3 d10 k3, PS) | 74% | target mRNA inhibition (0.02 µM): 35%; target mRNA inhibition (0.078 µM): 35%; target mRNA inhibition (0.313 µM): 60%; target mRNA inhibition (1.25 µM): 68%; target mRNA inhibition (5 µM): 84%
79 | AGTTATTAGAAGTCAG (sugars k3 d9 k3 e1, PS) | 56% | 
80 | AGTTTCCTCCACACCG (sugars k3 d10 k3, PS) | 28% | 
81 | AGTTTTCACCTCAGGT (sugars k3 d10 k3, PS) | 82% | 
82 | AGTTTTCGGCACTCAG (sugars k3 d10 k3, PS) | 16% | 
83 | ATAACCATAGGACATG (sugars k3 d10 k3, PS) | 70% | target mRNA inhibition (0.02 µM): 37%; target mRNA inhibition (0.078 µM): 38%; target mRNA inhibition (0.313 µM): 58%; target mRNA inhibition (1.25 µM): 84%; target mRNA inhibition (5 µM): 92%
84 | ATAACTCTATTGATTG (sugars k3 d10 k3, PS) | 39% | 
85 | ATAAGAGATGAGTAGG (sugars k3 d10 k3, PS) | 56% | 
86 | ATAATACATTAGCAAG (sugars k3 d10 k3, PS) | 7% | 
87 | ATAATCTTGTGCTTGG (sugars k3 d10 k3, PS) | 36% | 
88 | ATAATTACAACCTGGT (sugars k3 d10 k3, PS) | 44% | 
89 | ATACATACCACTCTTC (sugars k3 d10 k3, PS) | 18% | 
90 | ATACATTAGCAAGCTA (sugars k3 d1 m1 d8 k3, PS) | 36% | 
91 | ATACATTAGCAAGCTA (sugars k3 d10 k3, PS) | 69% | 
92 | ATACGCATGCGCAGTG (sugars k3 d10 k3, PS) | 38% | 
93 | ATACTGAAATTGATAC (sugars k3 d10 k3, PS) | 11% | 
94 | ATAGAACTAGAACTCC (sugars k3 d10 k3, PS) | 22% | 
